# Laboratory results taken from ChEMBL document CHEMBL1201862, “PubChem BioAssay data set” (2004).
# Activity calls are given as the source filed them.
# What was measured:
# [1] = cells; assay type: functional, cell-based; details: HEK-CNG
# [2] = molecular target: Galanin receptor type 3 (Homo sapiens, UniProt O60755); experiment: Fluorescence-based cell-based primary high throughput dose response assay to identify antagonists of the Galanin Receptor 3 (GalR3).; assay type: functional
# [3] = molecular target: T1, Endoribonuclease toxin MazF (Escherichia coli K-12, UniProt P0AE70); experiment: fluorescent RNA oligo signal without MazF, dose response, counter-screen for MazEF activator project, biochemical, fluorescence, single-stranded RNase substrate (AID 588502); assay type: functional
# T1 sequence (P0AE70 whole entry): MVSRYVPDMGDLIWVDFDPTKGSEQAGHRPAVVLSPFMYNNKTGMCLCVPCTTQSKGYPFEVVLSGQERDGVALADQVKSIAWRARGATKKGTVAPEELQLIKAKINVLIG
# [4] = cells
# [5] = molecular target: T1, Endoribonuclease toxin MazF; experiment: MazF toxin RNase activators, dose response, biochemical, fluorescence, single-stranded RNA substrate, uHTS hits (AID 588481); assay type: functional
# [6] = molecular target: T2, Scavenger receptor class B member 1 (Mus musculus, UniProt Q61009); experiment: inhibitors of SR-BI-mediated HDL uptake, dose response, cell-based, ldlA[mSR-BI] CHO, DiI fluorescence, dry powder, set 10 (AID 624029); assay type: functional
# T2 sequence (Q61009 whole entry): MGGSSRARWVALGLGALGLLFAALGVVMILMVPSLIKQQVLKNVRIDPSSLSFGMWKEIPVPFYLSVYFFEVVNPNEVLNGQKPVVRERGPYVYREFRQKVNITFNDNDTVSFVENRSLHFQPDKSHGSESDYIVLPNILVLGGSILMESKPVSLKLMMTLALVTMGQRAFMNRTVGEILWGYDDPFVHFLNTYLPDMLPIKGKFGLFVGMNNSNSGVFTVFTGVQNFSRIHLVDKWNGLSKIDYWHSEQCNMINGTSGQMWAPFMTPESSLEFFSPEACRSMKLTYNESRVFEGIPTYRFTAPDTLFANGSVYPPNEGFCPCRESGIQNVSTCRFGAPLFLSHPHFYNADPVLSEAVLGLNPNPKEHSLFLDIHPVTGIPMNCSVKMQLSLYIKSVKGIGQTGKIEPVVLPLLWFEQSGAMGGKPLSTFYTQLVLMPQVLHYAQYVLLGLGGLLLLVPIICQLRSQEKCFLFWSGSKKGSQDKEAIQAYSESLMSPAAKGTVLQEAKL
# [7] = molecular target: T2, Scavenger receptor class B member 1; experiment: inhibitors of SR-BI dependent HDL uptake, dose response, ldlA[mSR-BI] CHO cells, fluorescence plate reader, dry powder, set 9 (AID 623880); assay type: functional, cell-based
# [8] = CFTR ΔF508 corrector activity in bronchial cells, dose response, human bronchial epithelial cells, plate reader, cherry-pick, two tests (AID 743267); assay type: functional, cell-based
# [9] = Cytotoxicity screening for potential Inhibitors of Bacterial Capsule Biogenesis (4).; assay type: functional
# [10] = Counterscreen for activators of the function of SWI/SNF related, matrix associated, actin dependent regulator of chromatin, subfamily a, member 2 (SMARCA2, BRM): Luminescence-based cell-based high throughput dose response assay to identify non-selective compounds using the VP16 reporter assay.; assay type: functional
# [11] = molecular target: T3, Polyadenylate-binding protein 1 (Homo sapiens, UniProt P11940); experiment: PABP1 MLLE–PAM2 binding inhibitor potency, dose response, biochemical, fluorescence polarization, FITC-PAM2 peptide (AID 602259); assay type: functional; details: read-out: IC50_Mean
# [12] = molecular target: SWI/SNF-related matrix-associated actin-dependent regulator of chromatin subfamily A member 2 (Homo sapiens, UniProt P51531); experiment: Luminescence-based cell-based high throughput dose response assay to identify activators of the function of SWI/SNF related, matrix associated, actin dependent regulator of chromatin, subfamily a, member 2 (SMARCA2, BRM).; assay type: functional
# [13] = molecular target: T3, Polyadenylate-binding protein 1; experiment: PABP1 MLLE–PAM2 interaction inhibitors, dose response, miRNA deadenylation inhibitor project, biochemical, fluorescence polarization, Cy5-PAM2 peptide, secondary (AID 602260); assay type: functional; details: read-out: IC50_Mean
# [14] = tested on: HepG2; experiment: HepG2 cell cytotoxicity, dose response, cytotoxicity control, cherry-picks, set 2 (AID 687002); assay type: functional, cell-based; details: Homo sapiens
# [15] = cytotoxicity in ldlA[mSR-BI] CHO cells, dose response, cytotoxicity control for SR-BI HDL uptake inhibitor project, cell-based, CellTiter-Glo, 24 h, powder samples, set 7 (AID 624026); assay type: functional
# [16] = cells; details: HEK293
# [17] = cells; details: A549
# [18] = inhibitors of HIV Env-driven cell fusion, dose response, cherry-pick (AID 652057); assay type: functional, cell-based
# [19] = HEK293 cell cytotoxicity, dose response, cytotoxicity control, cherry-picks, set 5 (AID 1053117); assay type: functional, cell-based
# [20] = HepG2 cell cytotoxicity, dose response, cytotoxicity control, cherry-picks, set 5 (AID 1053118); assay type: functional, cell-based
# [21] = A549 cell cytotoxicity, dose response, cytotoxicity control, cherry-picks, 26 µM top dose (AID 1053119); assay type: functional, cell-based
# [22] = molecular target: Metabotropic glutamate receptor 3 (Rattus norvegicus, UniProt P31422); experiment: mGlu3 negative allosteric modulator potency, dose response, HEK/GIRK cells, thallium flux, rat (AID 651839); assay type: functional
# [23] = T. cruzi intracellular amastigote growth inhibition, dose response, imaging, CA-I/72 strain, bovine embryo skeletal muscle, dry powder (AID 651885); assay type: functional, cell-based
# [24] = Late stage assay provider results from the probe development effort to identify selective inhibitors of heat shock protein 90 (HSP90): Absorbance-based cell proliferation assay in MCF7 cells.; assay type: functional
# [25] = Late stage assay provider results from the probe development effort to identify selective inhibitors of heat shock protein 90 (HSP90): Absorbance-based cell proliferation assay in SKBR3 cells.; assay type: functional; details: SK-BR-3
# [26] = tested on: Vero; experiment: Vero cell toxicity, dose response, cytotoxicity control, plate reader, cherry-pick samples (AID 687020); assay type: functional, cell-based; details: Chlorocebus sabaeus
# [27] = tested on: A549; experiment: A549 cell toxicity, dose response, cytotoxicity control, plate reader, cherry-pick samples (AID 687028); assay type: functional, cell-based; details: Homo sapiens
# [28] = molecular target: COUP transcription factor 2 (Homo sapiens, UniProt P24468); experiment: Luminescence-based cell-based high throughput dose response assay to identify inhibitors of COUP-TFII (NR2F2).; assay type: functional;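 note: HEK293 cells transiently cotransfected with COUP-TFII expression vector and reporter; luciferase reporter luminescence driven by COUP-TFII from the pX2-168 reporter plasmid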
# [29] = microbe, parasite or virus in culture; assay type: functional; details: Mycobacterium tuberculosis
# [30] = A375 melanoma cell cytotoxicity, dose response, counter-screen for MITF inhibitor project, CellTiter-Glo luminescence, dry powder, set 2 (AID 624489); assay type: functional, cell-based; details: A-375;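 note: actives are compounds lowering A375 viability meaning general cytotoxicity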
# [31] = A375 melanoma cell viability loss, dose response, counter-screen for MITF inhibitor project, CellTiter-Glo luminescence, dry powder, set 4 (AID 624364); assay type: functional, cell-based; details: A-375;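 note: A375 melanoma cells are MITF independent so this is a counter screen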
# [32] = cells; assay type: functional, cell-based
# [33] = molecular target: T4, Nuclear receptor subfamily 0 group B member 1 (Homo sapiens, UniProt P51843); assay type: functional, cell-based;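 note: HEK293T cells transfected with SF-1 and DAX-1 plus StAR promoter luciferase reporter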
# T4 sequence (P51843 whole entry): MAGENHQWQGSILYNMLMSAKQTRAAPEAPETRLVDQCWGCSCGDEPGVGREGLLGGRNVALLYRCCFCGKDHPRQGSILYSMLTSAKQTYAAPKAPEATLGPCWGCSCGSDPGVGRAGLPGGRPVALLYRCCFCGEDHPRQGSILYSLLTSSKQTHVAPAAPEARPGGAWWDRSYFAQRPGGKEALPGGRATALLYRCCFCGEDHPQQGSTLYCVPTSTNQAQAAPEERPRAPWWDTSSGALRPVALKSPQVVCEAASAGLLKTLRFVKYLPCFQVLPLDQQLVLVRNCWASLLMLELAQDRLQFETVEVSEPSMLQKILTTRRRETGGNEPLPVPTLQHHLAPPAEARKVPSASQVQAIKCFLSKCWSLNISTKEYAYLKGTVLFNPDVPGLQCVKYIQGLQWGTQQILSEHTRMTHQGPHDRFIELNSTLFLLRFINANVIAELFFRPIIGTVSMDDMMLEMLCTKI
# [34] = HEK293 cell cytotoxicity, dose response, cytotoxicity control, plate reader, cherry-picked samples (AID 743446); assay type: functional, cell-based
# [35] = cytotoxicity in HepG2 cells, dose response, cytotoxicity control, cell-based, cherry-picked samples (AID 1053183); assay type: functional
# [36] = IGROV1 ovarian cancer cell cytotoxicity, dose response, PAX8 inhibitor project, plate reader, dry powder samples (AID 743043); assay type: functional, cell-based; details: IGROV-1
# [37] = LGR2 antagonists, dose response, cell-based, HEK293, CRE-luciferase reporter, cherry pick, set 2 (AID 743343); assay type: functional;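 note: transfected cells were stimulated with diluted bursicon conditioned medium after compound addition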
# [38] = NIH:OVCAR-3 ovarian cancer cell cytotoxicity, dose response, PAX8 inhibitor project, plate reader, dry powder samples (AID 743044); assay type: functional, cell-based
# [39] = IOSE-T80 ovarian epithelial cell cytotoxicity, dose response, cytotoxicity control for PAX8 inhibitor project, plate reader, dry powder samples (AID 743045); assay type: functional, cell-based
# [40] = HepG2 cell cytotoxicity, dose response, cytotoxicity control, plate reader, cherry-pick, antagonist series (AID 743416); assay type: functional, cell-based
# [41] = molecular target: Paired box protein Pax-8 (Homo sapiens, UniProt Q06710); experiment: inhibitors of PAX8-driven TPO luciferase reporter, dose response, RMG-I cells, cherry-pick (AID 687027); assay type: functional, cell-based;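 note: luciferase reporter driven by Pax8 target thyroperoxidase promoter measured by SteadyGlo luminescence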
# [42] = MC4R antagonists, dose response, counter-screen for LGR2 antagonist project, cell-based, plate reader, cherry pick (AID 743444); assay type: functional;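 note: transfected HEK 293 cells stimulated with alpha-MSH peptide; potency of inhibitors of the alpha-MSH evoked signal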
# [43] = A549 cell cytotoxicity, dose response, cytotoxicity control, plate reader, cherry-pick, antagonist series (AID 743412); assay type: functional, cell-based
# [44] = cytotoxicity in HEK293 cells, dose response, cytotoxicity control, cell-based, cherry-picked samples (AID 1053185); assay type: functional
# [45] = cytotoxicity in A549 cells, dose response, cytotoxicity control, cell-based, cherry-picked samples (AID 1053184); assay type: functional
# [46] = cytotoxicity in OVCAR8 ovarian cancer cells, dose response, PAX8 project, cell-based, plate reader, dry powder samples (AID 743197); assay type: functional; details: OVCAR-8
# T3 sequence (P11940 whole entry): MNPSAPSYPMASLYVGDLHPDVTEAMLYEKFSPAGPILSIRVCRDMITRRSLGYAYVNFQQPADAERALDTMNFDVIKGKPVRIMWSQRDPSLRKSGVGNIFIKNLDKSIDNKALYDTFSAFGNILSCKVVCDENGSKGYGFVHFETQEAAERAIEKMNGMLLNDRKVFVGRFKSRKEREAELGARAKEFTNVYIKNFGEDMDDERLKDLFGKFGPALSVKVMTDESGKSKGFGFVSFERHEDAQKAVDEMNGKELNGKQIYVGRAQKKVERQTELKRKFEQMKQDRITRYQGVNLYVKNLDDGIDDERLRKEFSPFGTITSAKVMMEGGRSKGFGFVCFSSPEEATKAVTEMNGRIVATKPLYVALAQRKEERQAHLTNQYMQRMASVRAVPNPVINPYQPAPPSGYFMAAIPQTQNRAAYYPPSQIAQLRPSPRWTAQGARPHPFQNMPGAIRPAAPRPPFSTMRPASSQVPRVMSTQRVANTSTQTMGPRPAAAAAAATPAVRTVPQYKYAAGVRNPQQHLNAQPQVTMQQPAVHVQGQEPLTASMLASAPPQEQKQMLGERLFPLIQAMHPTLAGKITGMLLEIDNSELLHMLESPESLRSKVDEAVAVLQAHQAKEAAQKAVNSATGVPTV
# Sequence of SWI/SNF-related matrix-associated actin-dependent regulator of chromatin subfamily A member 2 (P51531 whole entry): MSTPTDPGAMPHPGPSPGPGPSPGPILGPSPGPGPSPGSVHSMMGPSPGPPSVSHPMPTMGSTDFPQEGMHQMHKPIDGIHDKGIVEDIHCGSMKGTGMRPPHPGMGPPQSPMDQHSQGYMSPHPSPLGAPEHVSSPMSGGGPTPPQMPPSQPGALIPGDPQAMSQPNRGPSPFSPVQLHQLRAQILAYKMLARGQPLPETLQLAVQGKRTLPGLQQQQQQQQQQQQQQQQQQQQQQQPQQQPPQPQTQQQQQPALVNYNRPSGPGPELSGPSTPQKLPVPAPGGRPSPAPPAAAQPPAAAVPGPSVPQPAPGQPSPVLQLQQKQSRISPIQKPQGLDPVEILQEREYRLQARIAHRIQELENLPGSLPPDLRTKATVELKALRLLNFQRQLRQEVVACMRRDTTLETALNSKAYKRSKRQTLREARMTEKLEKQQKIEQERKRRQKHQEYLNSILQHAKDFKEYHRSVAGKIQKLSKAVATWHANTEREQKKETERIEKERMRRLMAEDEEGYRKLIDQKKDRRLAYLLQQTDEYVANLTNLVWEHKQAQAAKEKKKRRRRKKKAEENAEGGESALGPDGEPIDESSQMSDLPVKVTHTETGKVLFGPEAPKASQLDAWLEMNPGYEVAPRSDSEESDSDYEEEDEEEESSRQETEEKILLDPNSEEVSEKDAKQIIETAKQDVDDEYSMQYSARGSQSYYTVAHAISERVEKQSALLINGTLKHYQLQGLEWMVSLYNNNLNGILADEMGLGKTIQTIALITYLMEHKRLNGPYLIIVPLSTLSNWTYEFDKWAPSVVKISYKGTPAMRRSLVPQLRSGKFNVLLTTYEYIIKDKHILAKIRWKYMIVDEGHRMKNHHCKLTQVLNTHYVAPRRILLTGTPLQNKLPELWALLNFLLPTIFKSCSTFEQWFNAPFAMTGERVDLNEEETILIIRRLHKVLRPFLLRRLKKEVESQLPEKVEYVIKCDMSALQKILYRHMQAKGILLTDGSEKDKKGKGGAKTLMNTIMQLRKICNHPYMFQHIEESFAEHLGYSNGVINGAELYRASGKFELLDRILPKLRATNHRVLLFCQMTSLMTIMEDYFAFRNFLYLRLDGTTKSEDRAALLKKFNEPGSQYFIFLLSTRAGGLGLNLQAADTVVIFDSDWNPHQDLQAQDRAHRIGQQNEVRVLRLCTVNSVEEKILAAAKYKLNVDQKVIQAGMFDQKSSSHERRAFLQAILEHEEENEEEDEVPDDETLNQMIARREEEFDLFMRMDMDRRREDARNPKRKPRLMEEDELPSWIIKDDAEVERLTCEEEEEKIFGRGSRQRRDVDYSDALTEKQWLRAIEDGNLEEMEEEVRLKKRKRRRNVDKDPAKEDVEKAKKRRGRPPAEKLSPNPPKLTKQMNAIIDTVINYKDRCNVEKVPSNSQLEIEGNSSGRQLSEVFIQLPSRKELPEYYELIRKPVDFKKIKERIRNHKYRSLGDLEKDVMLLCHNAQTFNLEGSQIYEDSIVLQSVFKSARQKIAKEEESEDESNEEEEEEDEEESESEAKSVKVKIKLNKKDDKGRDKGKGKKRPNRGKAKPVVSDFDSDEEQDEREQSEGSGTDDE
# Sequence of COUP transcription factor 2 (P24468 whole entry): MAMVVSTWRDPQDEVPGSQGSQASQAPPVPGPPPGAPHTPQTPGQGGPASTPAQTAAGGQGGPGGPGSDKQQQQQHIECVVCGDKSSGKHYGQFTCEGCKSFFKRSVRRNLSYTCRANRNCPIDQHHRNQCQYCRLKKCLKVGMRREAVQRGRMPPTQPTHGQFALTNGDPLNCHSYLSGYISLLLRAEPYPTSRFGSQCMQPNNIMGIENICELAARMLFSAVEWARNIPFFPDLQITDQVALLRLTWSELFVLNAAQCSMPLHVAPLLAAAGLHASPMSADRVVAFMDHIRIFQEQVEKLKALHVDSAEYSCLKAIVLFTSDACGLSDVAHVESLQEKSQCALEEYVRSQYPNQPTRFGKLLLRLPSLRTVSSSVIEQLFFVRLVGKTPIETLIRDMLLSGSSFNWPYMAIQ
# Sequence of Paired box protein Pax-8 (Q06710 whole entry): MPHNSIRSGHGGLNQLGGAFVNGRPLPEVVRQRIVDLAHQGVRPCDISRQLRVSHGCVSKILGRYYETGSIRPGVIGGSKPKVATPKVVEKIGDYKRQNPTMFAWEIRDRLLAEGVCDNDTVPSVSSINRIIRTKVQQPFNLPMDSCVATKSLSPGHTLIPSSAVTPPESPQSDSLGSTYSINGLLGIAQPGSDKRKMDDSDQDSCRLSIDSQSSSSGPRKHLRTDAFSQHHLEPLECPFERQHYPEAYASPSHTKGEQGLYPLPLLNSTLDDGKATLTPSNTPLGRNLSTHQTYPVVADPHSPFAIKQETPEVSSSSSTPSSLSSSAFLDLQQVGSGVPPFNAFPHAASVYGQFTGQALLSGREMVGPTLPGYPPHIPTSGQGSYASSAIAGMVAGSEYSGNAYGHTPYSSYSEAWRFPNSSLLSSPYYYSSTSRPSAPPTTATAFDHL
# Sequence of Galanin receptor type 3 (O60755 whole entry): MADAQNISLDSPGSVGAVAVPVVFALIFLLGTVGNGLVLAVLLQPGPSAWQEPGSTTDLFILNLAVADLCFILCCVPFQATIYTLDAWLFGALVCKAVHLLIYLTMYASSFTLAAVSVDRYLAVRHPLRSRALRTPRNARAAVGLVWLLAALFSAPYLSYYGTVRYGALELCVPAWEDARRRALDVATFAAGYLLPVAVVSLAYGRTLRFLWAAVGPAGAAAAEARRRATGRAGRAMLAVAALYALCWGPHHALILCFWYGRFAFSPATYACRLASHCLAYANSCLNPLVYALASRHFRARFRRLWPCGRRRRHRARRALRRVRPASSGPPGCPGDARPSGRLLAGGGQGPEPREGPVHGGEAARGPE
# Sequence of Metabotropic glutamate receptor 3 (P31422 whole entry): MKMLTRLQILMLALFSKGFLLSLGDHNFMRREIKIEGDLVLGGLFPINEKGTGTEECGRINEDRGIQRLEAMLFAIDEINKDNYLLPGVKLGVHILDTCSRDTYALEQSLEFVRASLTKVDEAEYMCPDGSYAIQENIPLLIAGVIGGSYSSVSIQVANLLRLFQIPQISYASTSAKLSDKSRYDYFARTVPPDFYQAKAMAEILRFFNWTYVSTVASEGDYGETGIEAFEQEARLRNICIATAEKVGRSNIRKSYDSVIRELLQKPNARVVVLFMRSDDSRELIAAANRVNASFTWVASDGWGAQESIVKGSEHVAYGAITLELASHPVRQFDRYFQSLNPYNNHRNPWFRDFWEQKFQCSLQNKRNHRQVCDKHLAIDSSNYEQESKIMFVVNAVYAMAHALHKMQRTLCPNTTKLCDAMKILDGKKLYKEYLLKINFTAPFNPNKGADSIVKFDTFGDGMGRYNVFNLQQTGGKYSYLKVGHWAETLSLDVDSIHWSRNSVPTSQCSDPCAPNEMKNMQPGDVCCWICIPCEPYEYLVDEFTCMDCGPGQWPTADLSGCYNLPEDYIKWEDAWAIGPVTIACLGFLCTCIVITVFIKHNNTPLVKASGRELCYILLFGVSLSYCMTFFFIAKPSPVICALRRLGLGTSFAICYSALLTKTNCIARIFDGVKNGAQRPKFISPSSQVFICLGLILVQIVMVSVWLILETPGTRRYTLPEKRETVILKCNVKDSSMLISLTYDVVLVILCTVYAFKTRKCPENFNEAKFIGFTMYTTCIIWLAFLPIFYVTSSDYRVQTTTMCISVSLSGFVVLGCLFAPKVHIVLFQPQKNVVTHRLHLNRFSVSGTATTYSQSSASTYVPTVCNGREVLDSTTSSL
compound,measurement,setting,value
COc1cccc2[nH]c3c(N4CCCC(C)C4)ncnc3c12 (configuration not stated),EC50,[1],> 29.9 µM (inactive)
same,IC50,[2],0.4 µM (active)
CCOC(=O)c1cc2c(=O)n3ccccc3nc2n(Cc2ccc(Cl)cc2)c1=N,EC50,[3],> 99 µM (inactive)
same,AC50,[4],1.99 µM (active)
same,EC50,[5],> 99 µM (inactive)
COc1c(NC(=O)C(=O)c2ccc(OCCN3CCOCC3)c3ccccc23)cc(C(C)(C)C)cc1NS(C)(=O)=O [ITX-5061 FREE BASE],AC50,[6],0.146 µM (active)
same,AC50,[7],0.0114 µM (active)
COc1cccc(-c2ccc([C@@H]3[C@@H]4CN(S(=O)(=O)c5cccc(OC)c5)C[C@H]3N4)cc2)c1,AC50,[8],13.5 µM (active)
COc1cc(NC(=O)c2ccc3nc(N)sc3c2)ccn1,CC50,[9],172 µM (active)
Cn1sccc1=O,EC50,[10],> 91.2 µM (inactive)
same,IC50,[11],> 66 µM (inactive)
same,EC50,[12],> 91.2 µM (inactive)
same,IC50,[13],> 66 µM (inactive)
O=C(CSc1ncnc2c1cnn2-c1ccccc1)Nc1ccc2c(c1)OCO2,AC50,[14],14 µM (active)
CC(C)NC(=O)Nc1ccc2c(c1)C(=O)N([C@@H](C)CO)C[C@H](C)[C@@H](CN(C)S(=O)(=O)c1ccc(Cl)cc1)O2,AC50,[6],> 70 µM (inactive)
same,AC50,[15],> 70 µM (inactive)
C=CCN1C(=S)CC(c2ccccc2)=Nc2ccccc21,AC50,[16],> 52 µM (inactive)
same,AC50,[17],> 52 µM (inactive)
same,AC50,[18],47.9 µM (active)
O=C(Nc1ccc(Cl)cc1)N1C[C@H]2[C@@H](c3ccccc31)[C@H](CO)N2CC1CCCC1,AC50,[19],40.4 µM (active)
same,AC50,[20],35.8 µM (active)
same,AC50,[21],47.5 µM (active)
COc1ccc(C#Cc2ccc(C(=O)N3CCC(CO)C3)cc2)c(F)c1 (configuration not stated),IC50,[22],6.85 µM (active)
C[C@@H]1CN([C@@H](C)CO)C(=O)c2cccc(NC(=O)c3ccncc3)c2O[C@H]1CN(C)C,IC50,[23],> 20 µM (inactive)
COc1ccc(NC(=O)c2coc(=O)c(Br)c2)cc1,IC50,[24],2.4 µM (active)
same,IC50,[25],8.2 µM (active)
COc1ccccc1C(=O)N1[C@@H](C(C)C)COc2cc(Br)ccc2S1(=O)=O,AC50,[26],28 µM (active)
same,AC50,[27],24.4 µM (active)
C/C(=N\NC(N)=S)C1C2C3CC4C5CC(C42)C1C53 (configuration not stated),IC50,[28],6.4 µM (active)
same,CC50,[29],> 40 µM (active)
Cc1ccc(C(=O)NC2=C(c3ccc(OC(F)(F)F)cc3)C(=O)c3ccccc3C2=O)o1,AC50,[30],21.3 µM (active)
same,AC50,[31],33.4 µM (active)
Cc1ccc(NC(=O)c2ccc3snnc3c2)cc1C,IC50,[32],> 67.6 µM (inactive)
same,IC50,[33],> 67.6 µM (inactive)
Cc1ccccc1S(=O)(=O)N1C[C@@H]2N[C@H](C1)[C@H]2c1ccc(-c2cccc(C#N)c2)cc1,AC50,[34],20.4 µM (active)
same,AC50,[35],31.9 µM (active)
same,AC50,[36],20.5 µM (active)
same,AC50,[37],14.8 µM (active)
same,AC50,[38],21.7 µM (active)
same,AC50,[39],51.4 µM (active)
same,AC50,[40],9.35 µM (active)
same,AC50,[41],3.75 µM (active)
same,AC50,[42],14.3 µM (active)
same,AC50,[43],7.87 µM (active)
same,AC50,[44],35.5 µM (active)
same,AC50,[45],36.5 µM (active)
same,AC50,[46],39.1 µM (active)
